The target in this experiment is T1, S100A4 (Homo sapiens, UniProt P26447).
T1 construct: recombinant human (rh)S100A4, pET-15b, E. coli BL21 (DE3); with nonmuscle myosin IIA C-terminal fragment (rC-NMIIA, 149 terminal amino acids)
The experiment is described as follows: resonant mirror biosensor (SPR-type), inhibition of rhS100A4 binding to immobilised rC-NMIIA.

A value given as a limit tells only on which side of the number the result lay.

Drawing on PMC10377353, “Targeted Destruction of S100A4 Inhibits Metastasis of Triple Negative Breast Cancer Cells” (Biomolecules, 2023), this text covers inhibition for one molecule.

T1 sequence (P26447 2-101): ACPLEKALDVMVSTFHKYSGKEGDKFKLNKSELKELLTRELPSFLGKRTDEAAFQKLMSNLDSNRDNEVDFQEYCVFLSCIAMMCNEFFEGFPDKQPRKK
T1 sequence (P35579 2-1960 partner): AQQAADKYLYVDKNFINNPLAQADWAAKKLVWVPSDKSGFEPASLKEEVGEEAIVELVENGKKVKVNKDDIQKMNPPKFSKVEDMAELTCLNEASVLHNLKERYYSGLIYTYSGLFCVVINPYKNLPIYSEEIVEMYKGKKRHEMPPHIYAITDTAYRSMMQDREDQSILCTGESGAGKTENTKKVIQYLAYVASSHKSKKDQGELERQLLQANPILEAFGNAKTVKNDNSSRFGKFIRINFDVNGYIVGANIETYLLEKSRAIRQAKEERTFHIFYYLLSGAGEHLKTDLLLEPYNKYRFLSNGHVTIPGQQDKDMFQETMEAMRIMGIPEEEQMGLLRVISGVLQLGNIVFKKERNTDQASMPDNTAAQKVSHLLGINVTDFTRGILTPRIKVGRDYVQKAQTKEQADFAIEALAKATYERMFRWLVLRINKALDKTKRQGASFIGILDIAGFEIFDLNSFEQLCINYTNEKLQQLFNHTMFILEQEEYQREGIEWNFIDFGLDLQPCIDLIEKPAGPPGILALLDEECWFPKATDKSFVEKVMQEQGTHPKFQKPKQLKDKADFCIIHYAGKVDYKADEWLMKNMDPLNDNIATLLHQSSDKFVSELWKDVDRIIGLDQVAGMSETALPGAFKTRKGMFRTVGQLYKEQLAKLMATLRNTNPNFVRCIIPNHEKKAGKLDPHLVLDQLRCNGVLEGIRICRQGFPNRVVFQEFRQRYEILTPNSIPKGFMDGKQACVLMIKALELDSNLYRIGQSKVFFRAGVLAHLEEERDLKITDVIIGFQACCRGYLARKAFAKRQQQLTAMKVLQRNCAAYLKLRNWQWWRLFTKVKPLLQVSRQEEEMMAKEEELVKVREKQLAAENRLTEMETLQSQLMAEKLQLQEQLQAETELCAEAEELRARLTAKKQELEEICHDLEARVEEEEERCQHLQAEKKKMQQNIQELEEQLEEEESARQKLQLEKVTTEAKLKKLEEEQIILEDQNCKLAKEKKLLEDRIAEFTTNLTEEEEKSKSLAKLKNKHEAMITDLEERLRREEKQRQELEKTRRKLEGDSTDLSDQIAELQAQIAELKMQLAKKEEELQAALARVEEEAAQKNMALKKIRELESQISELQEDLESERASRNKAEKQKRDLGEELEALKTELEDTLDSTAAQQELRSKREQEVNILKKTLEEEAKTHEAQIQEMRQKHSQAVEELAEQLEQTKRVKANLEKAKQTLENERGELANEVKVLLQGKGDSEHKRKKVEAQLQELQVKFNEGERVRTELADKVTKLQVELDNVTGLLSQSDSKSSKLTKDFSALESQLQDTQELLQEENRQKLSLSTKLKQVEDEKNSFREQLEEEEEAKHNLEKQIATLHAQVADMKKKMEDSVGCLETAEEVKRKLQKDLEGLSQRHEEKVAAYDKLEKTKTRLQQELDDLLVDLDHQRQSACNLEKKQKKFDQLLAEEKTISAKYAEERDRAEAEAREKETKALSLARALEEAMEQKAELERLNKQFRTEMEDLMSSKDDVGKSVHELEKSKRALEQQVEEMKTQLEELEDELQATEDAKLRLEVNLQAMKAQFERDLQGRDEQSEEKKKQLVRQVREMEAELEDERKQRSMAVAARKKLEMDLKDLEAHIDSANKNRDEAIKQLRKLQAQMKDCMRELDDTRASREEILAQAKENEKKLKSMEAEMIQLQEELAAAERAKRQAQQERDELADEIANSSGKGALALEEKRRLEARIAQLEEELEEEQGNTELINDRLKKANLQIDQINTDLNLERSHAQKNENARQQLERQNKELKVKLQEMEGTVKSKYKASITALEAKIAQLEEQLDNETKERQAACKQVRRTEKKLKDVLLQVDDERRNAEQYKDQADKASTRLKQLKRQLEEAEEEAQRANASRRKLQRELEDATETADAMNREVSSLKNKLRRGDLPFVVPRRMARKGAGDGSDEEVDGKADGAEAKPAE

Turning to `COC1(OC)[C@@]2(Cl)C(Cl)=C(Cl)[C@]1(Cl)[C@@H]1C(=O)N(c3ccccc3C)C(=O)[C@@H]12` [CT070909], the inhibition (usually the drop in the measured response relative to a control, in per cent) at 33 µM was > 90%.
